# Experimental data reported in US5292733A, “Cephalosporin compounds” (Lucky Limited, priority 1991, dated 1994).
# How the values were obtained:
# Assay in all cases: Antibacterial activity MIC, two-fold agar dilution
# Type in all cases: cell-based
# [1] = test system: Escherichia coli ATCC 10536; conditions: ATCC10536, Muller-Hinton agar, 37° C., 20 hours
# Description: (§1) These MIC values were taken by employing a two-fold dilution method: that is, two-fold serial dilutions of each of the test compounds were made and dispersed in a Muller-Hinton agar medium; 2 μl of the standard test strain which had the 10^7 CFU(Colony Forming Unit) per ml was inoculated on the medium; and these were incubated at 37° C. for 20 hours. The results of the MIC tests are shown Table 1.
# [2] = test system: Pseudomonas aeruginosa ATCC 10145; conditions: ATCC10145; Pseudomonas aeruginosa ATCC 10145; Muller-Hinton agar, 37° C., 20 hours; read-out: Antibacterial Activity MIC
# Description: as §1
# [3] = test system: Acinetobacter calcoaceticus ATCC 15473; conditions: ATCC15473; Acinetobacter calcoaceticus ATCC 15473; Muller-Hinton agar, 37° C., 20 hours; read-out: Antibacterial Activity MIC
# Description: as §1
# [4] = test system: Providencia rettgeri ATCC 9250; conditions: ATCC9250, Muller-Hinton agar, 37° C., 20 hours
# Description: as §1
# [5] = test system: Streptococcus faecalis ATCC 29212; conditions: Enterococcus faecalis, ATCC29212; Streptococcus faecalis ATCC 29212; Muller-Hinton agar, 37° C., 20 hours; read-out: Antibacterial Activity MIC
# Description: as §1
# [6] = test system: Enterobacter cloacae ATCC 27508; conditions: ATCC27508; Enterobacter cloacae ATCC 27508; Muller-Hinton agar, 37° C., 20 hours; read-out: Antibacterial Activity MIC
# Description: as §1
# [7] = test system: Staphylococcus epidermidis ATCC 12228; conditions: ATCC12228; Staphylococcus epidermidis ATCC 12228; Muller-Hinton agar, 37° C., 20 hours; read-out: Antibacterial Activity MIC
# Description: as §1
# [8] = test system: Proteus vulgaris ATCC 6059; conditions: ATCC6059; Proteus vulgaris ATCC 6059; Muller-Hinton agar, 37° C., 20 hours; read-out: Antibacterial Activity MIC
# Description: as §1
# [9] = test system: Serratia marcescens ATCC 27117; conditions: ATCC27117; Serratia marcescens ATCC 27117; Muller-Hinton agar, 37° C., 20 hours; read-out: Antibacterial Activity MIC
# Description: as §1
# [10] = test system: Micrococcus luteus ATCC 9341; conditions: ATCC9341; Micrococcus luteus ATCC 9341; Muller-Hinton agar, 37° C., 20 hours; read-out: Antibacterial Activity MIC
# Description: as §1
# [11] = test system: Escherichia coli ATCC 25922; conditions: ATCC25922, Muller-Hinton agar, 37° C., 20 hours
# Description: as §1
# [12] = test system: Shigella flexneri ATCC 11836; conditions: ATCC11836, Muller-Hinton agar, 37° C., 20 hours
# Description: as §1
# [13] = test system: Enterobacter aerogenes ATCC 29751; conditions: Klebsiella aerogenes, ATCC29751; Enterobacter aerogenes ATCC 29751; Muller-Hinton agar, 37° C., 20 hours; read-out: Antibacterial Activity MIC
# Description: as §1
# [14] = test system: Bacillus megaterium ATCC 9885; conditions: Priestia megaterium, ATCC9885; Bacillus megaterium ATCC 9885; Muller-Hinton agar, 37° C., 20 hours; read-out: Antibacterial Activity MIC
# Description: as §1
# [15] = test system: Klebsiella pneumoniae ATCC 10031; conditions: ATCC10031; Klebsiella pneumoniae ATCC 10031; Muller-Hinton agar, 37° C., 20 hours; read-out: Antibacterial Activity MIC
# Description: as §1
# [16] = test system: Shigella sonnei ATCC 11060; conditions: ATCC11060, Muller-Hinton agar, 37° C., 20 hours
# Description: as §1
# [17] = test system: Bacillus cereus ATCC 11778; conditions: ATCC11778; Bacillus cereus ATCC 11778; Muller-Hinton agar, 37° C., 20 hours; read-out: Antibacterial Activity MIC
# Description: as §1
# [18] = test system: Pseudomonas aeruginosa ATCC 25619; conditions: ATCC25619; Pseudomonas aeruginosa ATCC 25619; Muller-Hinton agar, 37° C., 20 hours; read-out: Antibacterial Activity MIC
# Description: as §1
# [19] = test system: Citrobacter freundii ATCC 8090; conditions: ATCC8090; Citrobacter freundii ATCC 8090; Muller-Hinton agar, 37° C., 20 hours; read-out: Antibacterial Activity MIC
# Description: as §1
# [20] = test system: Staphylococcus aureus ATCC 10537; conditions: ATCC10537; Staphylococcus aureus ATCC 10537; Muller-Hinton agar, 37° C., 20 hours; read-out: Antibacterial Activity MIC
# Description: as §1
# [21] = test system: Salmonella typhimurium ATCC 14028; conditions: Salmonella enterica; Salmonella typhimurium ATCC 14028; Muller-Hinton agar, 37° C., 20 hours; read-out: Antibacterial Activity MIC
# Description: as §1
# [22] = test system: Morganella morganii ATCC 8076h; conditions: ATCC8076H, Muller-Hinton agar, 37° C., 20 hours
# Description: as §1
# [23] = test system: Proteus mirabilis ATCC 25933; conditions: ATCC25933; Proteus mirabilis ATCC 25933; Muller-Hinton agar, 37° C., 20 hours; read-out: Antibacterial Activity MIC
# Description: as §1
# [24] = test system: Pseudomonas aeruginosa ATCC 27853; conditions: ATCC27853; Pseudomonas aeruginosa ATCC 27853; Muller-Hinton agar, 37° C., 20 hours; read-out: Antibacterial Activity MIC
# Description: as §1
# [25] = test system: Staphylococcus aureus ATCC 6538p; conditions: ATCC6538P; Staphylococcus aureus ATCC 6538p; Muller-Hinton agar, 37° C., 20 hours; read-out: Antibacterial Activity MIC
# Description: as §1
SMILES,MIC [1] [µg/mL],MIC [2] [µg/mL],MIC [3] [µg/mL],MIC [4] [µg/mL],MIC [5] [µg/mL],MIC [6] [µg/mL],MIC [7] [µg/mL],MIC [8] [µg/mL],MIC [9] [µg/mL],MIC [10] [µg/mL],MIC [11] [µg/mL],MIC [12] [µg/mL],MIC [13] [µg/mL],MIC [14] [µg/mL],MIC [15] [µg/mL],MIC [16] [µg/mL],MIC [17] [µg/mL],MIC [18] [µg/mL],MIC [19] [µg/mL],MIC [20] [µg/mL],further results
"CCO/N=C(\C(=O)N[C@@H]1C(=O)N2C(C(=O)[O-])=C(CSc3cc(N)[n+](CC)c(N)n3)CS[C@H]12)c1nsc(N)n1 [Compound I-11, (6R,7R)-7-[(Z)-2-(5-amino-1,2,4-thiadiazol-3-yl)-2-(ethoxyimino)acetamido]-3-(2,6-diamino-1-ethylpyrimidinium-4-yl)thiomethyl-3-cephem-4-carboxylate]",0.13,2,4,≤ 0.008,8,≤ 0.008,0.25,0.5,0.13,0.016,0.25,0.031,0.13,0.13,≤ 0.008,0.25,128,0.5,0.063,0.5,MIC [21]: 0.063 µg/mL; MIC [22]: 0.016 µg/mL; MIC [23]: 0.5 µg/mL; MIC [24]: 1 µg/mL; MIC [25]: 0.5 µg/mL
"C[n+]1c(N)cc(SCC2=C(C(=O)[O-])N3C(=O)[C@@H](NC(=O)/C(=N\OC(C)(C)C(=O)O)c4csc(N)n4)[C@H]3SC2)nc1N [Compound I-12, (6R,7R)-7-[(Z)-2-(2-aminothiazol-4-yl)-2-(carboxyprop-2-oxyimino)acetamido]-3-(2,6-diamino-1-methylpyrimidinium-4-yl)thiomethyl-3-cephem-4-carboxylate]",0.25,2,8,≤ 0.008,> 128,0.031,4,0.25,0.5,0.5,0.25,0.063,2,0.25,0.063,0.25,128,1,0.13,4,MIC [21]: 0.25 µg/mL; MIC [22]: ≤ 0.008 µg/mL; MIC [23]: 0.13 µg/mL; MIC [24]: 1 µg/mL; MIC [25]: 8 µg/mL
"CC[n+]1c(N)cc(SCC2=C(C(=O)[O-])N3C(=O)[C@@H](NC(=O)/C(=N\OC(C)(C)C(=O)O)c4csc(N)n4)[C@H]3SC2)nc1N [Compound I-13, (6R,7R)-7-[(Z)-2-(2-aminothiazol-4-yl)-2-(carboxyprop-2-oxyimino)acetamido]-3-(2,6-diamino-1-ethylpyrimidinium-4-yl)thiomethyl-3-cephem-4-carboxylate]",0.13,2,8,≤ 0.008,> 128,0.031,2,0.25,0.5,0.5,0.13,0.063,2,0.25,0.063,0.25,128,1,0.13,4,MIC [21]: 0.25 µg/mL; MIC [22]: ≤ 0.008 µg/mL; MIC [23]: 0.13 µg/mL; MIC [24]: 1 µg/mL; MIC [25]: 8 µg/mL
